According to patent US20220248744A1, “NICOTINE MATERIALS, METHODS OF MAKING SAME, AND USES THEREOF” (The Research Foundation for the State University of New York, priority 2019, published 2022):

Legend:
[1] = Thermal analysis (differential scanning calorimetry / melting point): thermodynamic stability; type: physicochemical; details: based on DSC thermal analysis
Description: Differential Scanning calorimetry (DSC). A differential scanning calorimeter, model DSC Q200 (TA Instrument, USA) was used to measure the thermal transitions of the samples. About 10 mg of each synthesized compound was placed into an aluminum pan and sealed. Each sample, except (S)-nicotinium 2,6-Dihydroxybenzoate, was scanned from 0 to 150° C. at 20° C./min under nitrogen flow for at least 2 full cycles. (S)-nicotinium 2,6-Dihydroxybenzoate was scanned from 0 to 175° C. at 20° C./min under nitrogen flow for at least 2 full cycles.
Melting Point (MP): A Stuart SMP10 melting point apparatus was utilized to measure the melting point of each of the synthesized compounds. 4 replicates were run for each compound. The plateau temperature was set to 100° C. for each of the salts, except (S)-nicotinium D-malate, and then ramped at 2° C./minute. The plateau temperature was set to 80° C. for the (S)-nicotinium D-malate salt and ramped at 2° C./minute.
Thermal Analysis. […] This was confirmed via differential scanning calorimetry (DSC) by a very broad endotherm 116.4° C. […] This was confirmed by DSC where in the sharp endotherm at 123.5° C. indicated the melting of this (S)-nicotinium L-malate salt. […] This was confirmed via DSC, wherein the sharp endotherm at 95.2° C. The orthorhombic P212121 (S)-nicotinium DL-malate was initially observed as having a broad melting point of 76-78° C. The was confirmed via DSC wherein a melting point of 77.8° C., though with a very broad curve. […] Monoclinic P21 (S)-nicotinium 2,6-dihydroxybenzoate salt had the highest melting observed thus far. The sharp endotherm at 158.5° C. confirmed the observed melting point. Monoclinic P21 (S)-nicotinium 2,5-dihydroxyterephthalate was observed initially as having a tight melting point range of 196-198° C.

[2] = UV λ=300 nm, air flow, 1H NMR
Description: UV Photodegradation. […] Each sample was then irradiated with ultraviolet (UV) light in a home built vented box with air flow for 24 hours using four Southern New England Ultraviolet Company RPR—3000A UV bulbs (λ=300 nm). NMR analysis was then carried out on each sample to screen for any UV photodegradation of products.
UV Photodegradation Analysis. […] As such the stability of the produced crystalline nicotine salts were studied by placing them in a homemade UV irradiation box for 24 hours while airflow into the box was maintained. The pure coformers, as well as pure nicotine (FIG. 79), were also each tested as a standard for their respective nicotine salt. This test was designed to attempt to forcefully stress test and degrade the crystalline nicotine materials. NMR was selected as the most readily available means to quantify any degradation that may occur.

[3] = cited from earlier work
[4] = Aerosolization/Vaporization Analysis (iStick Pico with Sai atomizer, syringe as lung analog); details: heating in bucket coil; decarboxylation of the acid coformer

Row | Structure (SMILES) | pKa (Strongest Acidic) [3] | other results
1 | CN1CCC[C@H]1c1cccnc1.O=C(O)c1cc(O)c(C(=O)O)cc1O [(S)-nicotinium 2,5-dihydroxyterephthalate] |  | thermodynamic / thermal stability [1]: highest observed thermal stability; degradation after 24 hours of UV irradiation [2]: no degradation
2 | CN1CCCC1c1cccnc1.O.O=C(O)c1cc(=O)[nH]c(=O)[nH]1 [(S)-nicotinium orotate monohydrate] |  | degradation after 24 hours of UV irradiation [2]: no degradation
3 | OC[C@@H](O)[C@H](O)[C@@H](O)CO [Xylitol] | 12.76 | 
4 | COc1ccccc1C(=O)O [Ortho-Anisic Acid] | 3.73 | 
5 | O=C(O)C=Cc1ccccc1 [Cinnamic acid] | 4.01 | 
6 | O=C(O)c1cc(Cc2ccc(O)c(C(=O)O)c2)ccc1O [5,5′-Methylenedisalicylic Acid] | 2.94 | 
7 | CN1CCC[C@H]1c1cccnc1.O=C(O)C[C@H](O)C(=O)O [monoclinic P21 (S)-nicotinium L-malate, (S)-nicotinium L-malate] |  | thermodynamic / thermal stability [1]: most thermodynamically favored and stable malate salt; thermodynamic / thermal stability ([1]; listed as Monoclinic P21 (S)-nicotinium L-malate): thermodynamically more stable than the orthorhombic P212121 (S)-nicotinium L-malate; degradation after 24 hours of UV irradiation [2]: no degradation
8 | C=C1C[C@@]23CC[C@H]4[C@@](C)(CCC[C@@]4(C)C(=O)O)[C@@H]2CC[C@]1(O)C3 [Steviol] | 4.70 | 
9 | O=C(O)CCC(=O)O [Succinic Acid] | 3.55 | 
10 | COc1ccc(C(=O)O)cc1 [Para-Anisic Acid] | 4.37 | 
11 | COc1ccc(O)c(C(=O)O)c1 [5-Methoxysalicylic acid] | 2.52 | 
12 | CC(O)(CC(=O)O)C(=O)O (stereo not shown) [Citramalic Acid] | 3.35 | 
13 | CC(=O)C(=O)O [Pyruvic Acid] | 2.93 | 
14 | CN1CCCC1c1cccnc1.O=C(O)CC(O)C(=O)O [(S)-nicotinium D-malate] |  | thermodynamic / thermal stability [1]: thermodynamically less stable than either of the (S)-nicotinium L-malate salts; degradation after 24 hours of UV irradiation [2]: no degradation
15 | NC(C(=O)O)C(=O)O [Aminomalonic Acid] | 0.45 | 
16 | OC[C@@H](O)[C@@H](O)CO [Erythritol] | 13.04 | 
17 | O=C(O)C(O)C(=O)O [Tartronic Acid] | 2.42 | 
18 | COc1ccc(C(=O)O)c(O)c1 [4-Methoxysalicylic Acid] | 3.09 | 
19 | COC(=O)[C@H](Cc1ccccc1)NC(=O)[C@@H](N)CC(=O)O [Aspartame] | 3.53 | 
20 | CC1CCC(C(C)C)C(O)C1 (stereo not shown) [Menthol] | 19.55 | 

Row | Structure (SMILES) | pKa (Strongest Acidic) [3] | other results
21 | C[N+](C)(C)CC(=O)O [Betaine] | 2.26 | 
22 | O=C(O)[C@H](O)[C@@H](O)[C@@H](O)[C@H](O)CO [Galactonic Acid] | 3.39 | 
23 | O=C(/C=C/c1ccc(O)c(O)c1)O[C@@H](C(=O)O)[C@@H](O)C(=O)O [Caftaric Acid] | 2.96 | 
24 | OC[C@H]1O[C@@](CO)(O[C@H]2O[C@H](CO)[C@@H](O)[C@H](O)[C@H]2O)[C@@H](O)[C@@H]1O [Sucrose] | 11.84 | 
25 | COc1cccc(C(=O)O)c1 [Meta-Anisic Acid] | 3.84 | 
26 | O=C(O)c1cc(=O)[nH]c(=O)[nH]1 [orotic acid] |  | degradation after 24 hours of UV irradiation [2]: no orotic acid degradation
27 | Nc1cccc(C(=O)O)c1O [3-Aminosalicylic Acid] | 2.90 | 
28 | O=C(O)c1cc(O)c(C(=O)O)cc1O [2,5-Dihydroxyterepthalic Acid] |  | degradation after 24 hours of UV irradiation [2]: no 2,5-dihydroxyterephthalic acid degradation
29 | C[N+](C)(C)CC(O)CC(=O)[O-] (stereo not shown) [Carnitine] | 4.20 | 
31 | O=C(O)c1c(O)cc(O)cc1O [2,4,6-Trihydroxybenzoic Acid] | 1.83 | 
32 | OC[C@H]1O[C@H](O[C@]2(CCl)O[C@H](CCl)[C@@H](O)[C@@H]2O)[C@H](O)[C@@H](O)[C@H]1Cl [Sucralose] | 1.91 | 
33 | CN1CCC[C@H]1c1cccnc1.O=C(O)C[C@H](O)C(=O)O [orthorhombic P212121 (S)-nicotinium L-malate] |  | thermodynamic / thermal stability [1]: more thermodynamically stable than the orthorhombic P212121 (S)-nicotinium D-malate; degradation after 24 hours of UV irradiation [2]: no degradation
34 | CN1CCC[C@H]1c1cccnc1.O=C(O)c1c(O)cccc1O [(S)-nicotinium 2,6-dihydroxybenzoate] |  | thermodynamic / thermal stability [1]: highest observed thermal stability; degradation after 24 hours of UV irradiation [2]: no degradation
35 | O=C(O)/C=C/C(=O)O [Fumaric Acid] | 3.55 | 
36 | O=C(O)c1c(O)cccc1O [2,6-Dihydroxybenzoic Acid] | 1.51 | 
37 | O=C(O)/C=C\C(=O)O [Maleic Acid] | 3.05 | 
38 | CN1CCC[C@H]1c1cccnc1.O=C(O)c1ccccc1O [monoclinic P21 (S)-nicotinium salicylate, (S)-nicotinium salicylate] |  | degradation after 24 hours of UV irradiation [2]: no degradation; degradation product formed during vaporization [4]: phenol was likely also formed
39 | O=C[C@H](O)[C@@H](O)[C@@H](O)[C@H](O)C(=O)O [Galacturonic Acid] | 3.24 | 
